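Grown in 96-well plates, cells were treated for 48 hours with each compound at five concentrations. Insufficient inhibition: endpoint recorded as highest concentration tested. Here, GI50 denotes the concentration required for 50% inhibition of growth. At the TGI there is no net growth.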 Some results are limits rather than exact numbers.

Some test systems named below: SNB-75 CNS; DMS 114 small cell lung; DMS 273 small cell lung; SK-MEL-5 melanoma; PC-3 prostate; MDA-MB-231 breast; MDA-MB-435; KM20L2 colon; P388 leukemia; XF 498 CNS.
Common to all, as to test: NCI tumour cell line growth inhibition, 48 h

As for `N#C[S-].[La+3].c1ccc(-c2ccccn2)nc1.c1ccc(-c2ccccn2)nc1.c1ccc(-c2ccccn2)nc1`, the GI50 with SNB-75 CNS was 25.9 µM; in the assay on DMS 114 small cell lung, 26.1 µM; in the assay with DMS 273 small cell lung it was 19.1 µM; in the assay with SK-MEL-5 melanoma, 10.4 µM. The TGI in the assay with SNB-75 CNS is > 100 µM; in the assay on DMS 114 small cell lung, 97.2 µM; in the assay with DMS 273 small cell lung, 88.5 µM; with SK-MEL-5 melanoma it was 34.8 µM.
As to `Clc1cc(N/N=C(\c2ccccc2)c2ccccn2)ncn1`, the TGI in the assay with SNB-75 CNS is > 100 µM; in the assay on PC-3 prostate, > 100 µM; with MDA-MB-231 breast it was 0.0669 µM; in the assay with MDA-MB-435 it was > 100 µM; in the assay with SK-MEL-5 melanoma, 4.2 µM.
For `Brc1ccc2[nH]c3c(C4=NCCC4)nccc3c2c1`, the TGI is > 82 µM with SNB-75 CNS; 23.3 µM in the assay on KM20L2 colon; > 21.7 µM in the assay with P388 leukemia; > 57.8 µM in the assay with DMS 114 small cell lung; > 76 µM with DMS 273 small cell lung; > 72.2 µM in the assay with XF 498 CNS. Further, the TGI with SK-MEL-5 melanoma is > 34.2 µM.
As for `CC1OC(OC2C(O)CC(OC3C(O)CC(OC4CCC5(C)C(CCC6C5CCC5(C)C(C7=CC(=O)OC7)C(O)CC65O)C4)OC3C)OC2C)CC(O)C1O` (stereo unspecified), the TGI is 5.37 µM in the assay with SNB-75 CNS, 1.59 µM with PC-3 prostate, 1.27 µM with MDA-MB-435 and 0.533 µM in the assay with SK-MEL-5 melanoma.
`Cc1ccc(S(=O)(=O)OC[C@@]2(C)CC[C@]3(C)CC[C@]4(C)C(=C3C2)C=C[C@@H]2[C@@]3(C)CCCNC(C)(C)[C@@H]3CC[C@]24C)cc1`: the figures for the GI50 in the assay on SNB-75 CNS, with PC-3 prostate and in the assay with MDA-MB-435 were 1.61 µM, 1.53 µM and 1.64 µM, respectively. For the same compound, the values for the TGI with SNB-75 CNS, in the assay on PC-3 prostate and in the assay on MDA-MB-435 were 3.1 µM, 2.98 µM and 3.07 µM, respectively.
In the case of `CCOC(=O)c1ccc(N(CCOS(C)(=O)=O)CCOS(C)(=O)=O)cc1`, the TGI with PC-3 prostate, in the assay on MDA-MB-231 breast, in the assay with MDA-MB-435 and in the assay on SK-MEL-5 melanoma was > 100 µM each time.
As for `Oc1c(Br)cc2c(c1Br)-c1c(c(O)c3c4c1=NCCC=4C=N3)NCC2`, the TGI is 34.5 µM in the assay on SNB-75 CNS; 18.7 µM with KM20L2 colon; > 22.2 µM in the assay with P388 leukemia; 9.76 µM with DMS 114 small cell lung; 27.7 µM in the assay on DMS 273 small cell lung; 27.2 µM with XF 498 CNS. In the assay on SK-MEL-5 melanoma, this compound returned a TGI of 23.2 µM.
As to `CCCCCCCCCCCC1N=C(N)N=C(N)N1c1cccc(Br)c1` (stereo unspecified), in the assay with MDA-MB-435, the GI50 was 0.523 µM and the TGI amounted to 1.79 µM.
For the compound `O=c1cc(-c2cccc(OC(F)(F)F)c2)[nH]c2ccc(N3CCCC3)cc12`, the TGI with MDA-MB-435 was < 0.0001 µM; with SK-MEL-5 melanoma it was 0.0105 µM.
With `Cc1c2cc[n+](Cc3ccc(I)cc3)cc2c(C)c2c1[nH]c1ccccc12`, the TGI is 1.58 µM with SNB-75 CNS; > 15.4 µM in the assay on KM20L2 colon; 0.558 µM in the assay on P388 leukemia; 2.63 µM with DMS 114 small cell lung; 6.17 µM in the assay with DMS 273 small cell lung; 1.17 µM with XF 498 CNS. In the assay on SK-MEL-5 melanoma, this compound came in with a TGI of 1.33 µM.
As to `[CH3][Sn]([CH3])([CH3])[S]C(=S)N1CCOCC1`, the GI50 is 3.34 µM with SNB-75 CNS; 0.789 µM in the assay with KM20L2 colon; 0.082 µM in the assay on P388 leukemia; 0.772 µM with DMS 114 small cell lung; 0.508 µM in the assay with DMS 273 small cell lung; 0.643 µM in the assay with XF 498 CNS. Moreover, the GI50 with SK-MEL-5 melanoma was 0.881 µM. Also, the TGI with SNB-75 CNS was > 31.4 µM; with KM20L2 colon, 8.2 µM; in the assay on P388 leukemia it was 0.389 µM; in the assay with DMS 114 small cell lung, 3.72 µM; with DMS 273 small cell lung, 6.13 µM; in the assay with XF 498 CNS, 5.97 µM. Moreover, the TGI in the assay with SK-MEL-5 melanoma was determined as 2.62 µM.
On to `O=C(Nc1cccc(-n2ccc3c(NC(=O)c4ccccc4)ncnc32)c1)Nc1ccc(Cl)c(C(F)(F)F)c1`, for which the GI50 was 0.954 µM in the assay on SNB-75 CNS; 1.25 µM in the assay on PC-3 prostate; 2.06 µM in the assay on MDA-MB-231 breast; 1.44 µM in the assay with MDA-MB-435; 2.2 µM in the assay on SK-MEL-5 melanoma. In addition, the TGI with SNB-75 CNS was 9.15 µM; in the assay on PC-3 prostate, 5.93 µM; in the assay on MDA-MB-231 breast, 7.94 µM; with MDA-MB-435, 5.6 µM; in the assay with SK-MEL-5 melanoma, 8.16 µM.
